system: Human immunodeficiency virus 1; test: Antiviral activity against HIV-1 infected in human MT4 cells assessed as inhibition of viral growth; type: functional, organism-based; conditions: Human immunodeficiency virus 1, MT4

| Structure (SMILES) | EC50 [µM] |
| --- | --- |
| O=C(O)c1c[nH]c2ccc(Cc3cccc(Cl)c3F)cc2c1=O | 0.805 |
| O=C(O)c1cn(CCO)c2ccc(Cc3cccc(Cl)c3F)cc2c1=O | 0.0763 |
| O=C(O)c1cnc2ccc(Cc3ccccc3)cc2c1O | > 30 |

biological target: T1, Non-receptor tyrosine-protein kinase TYK2 (Homo sapiens, UniProt P29597); test: Inhibition of TYK2 (unknown origin) (575 to 869 residues) by HTRF assay; conditions: not given
T1 sequence (P29597 whole entry, the tested form may be a part): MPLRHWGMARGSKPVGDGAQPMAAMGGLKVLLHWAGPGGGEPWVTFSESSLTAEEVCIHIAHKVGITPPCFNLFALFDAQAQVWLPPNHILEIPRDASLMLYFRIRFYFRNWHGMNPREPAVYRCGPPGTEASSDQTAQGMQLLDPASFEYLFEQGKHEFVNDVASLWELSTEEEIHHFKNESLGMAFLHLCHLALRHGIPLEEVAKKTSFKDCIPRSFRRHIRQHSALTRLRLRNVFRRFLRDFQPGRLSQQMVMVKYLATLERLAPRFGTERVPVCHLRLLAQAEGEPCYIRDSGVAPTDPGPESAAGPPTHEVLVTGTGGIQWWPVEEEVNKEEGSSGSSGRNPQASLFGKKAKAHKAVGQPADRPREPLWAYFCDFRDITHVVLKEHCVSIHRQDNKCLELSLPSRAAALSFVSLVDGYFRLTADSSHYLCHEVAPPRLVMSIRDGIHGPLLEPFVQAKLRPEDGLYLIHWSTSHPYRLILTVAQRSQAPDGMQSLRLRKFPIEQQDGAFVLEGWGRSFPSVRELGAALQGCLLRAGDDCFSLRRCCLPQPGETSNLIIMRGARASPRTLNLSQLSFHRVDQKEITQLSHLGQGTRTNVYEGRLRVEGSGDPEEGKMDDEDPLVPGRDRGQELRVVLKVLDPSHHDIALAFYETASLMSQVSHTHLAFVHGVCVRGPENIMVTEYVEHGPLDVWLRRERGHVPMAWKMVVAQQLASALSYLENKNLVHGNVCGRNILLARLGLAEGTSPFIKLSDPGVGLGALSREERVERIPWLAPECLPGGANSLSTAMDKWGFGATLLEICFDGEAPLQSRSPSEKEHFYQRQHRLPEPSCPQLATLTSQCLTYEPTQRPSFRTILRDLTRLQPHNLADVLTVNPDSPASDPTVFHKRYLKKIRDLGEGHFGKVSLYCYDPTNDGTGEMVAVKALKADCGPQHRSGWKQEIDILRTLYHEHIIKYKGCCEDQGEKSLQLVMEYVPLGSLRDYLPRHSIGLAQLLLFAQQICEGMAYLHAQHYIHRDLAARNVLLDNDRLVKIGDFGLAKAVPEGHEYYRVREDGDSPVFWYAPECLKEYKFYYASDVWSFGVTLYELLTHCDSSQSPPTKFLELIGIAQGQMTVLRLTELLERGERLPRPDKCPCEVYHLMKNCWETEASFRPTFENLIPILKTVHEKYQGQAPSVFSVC

| IC50 [µM] | Structure (SMILES) |
| --- | --- |
| 0.0006 | CNC(=O)c1cnc(Nc2ccc(F)cn2)cc1Nc1cccc(C(=O)NC)c1OC |
| 0.044 | CNC(=O)c1cccc(Nc2cc(Nc3ccc(F)cn3)ncc2C(=O)NC)c1 |

system: Hepatitis C virus; test: Antiviral activity against Hepatitis C virus genotype 1a infected in human Huh-7 cells assessed as reduction in viral infection; type: functional, organism-based, Hepacivirus hominis; conditions: not given

| EC50 [µM] | Structure (SMILES) |
| --- | --- |
| 0.012 | COc1ccc2c(c1)[C@@H]1C[C@]1(C(=O)N1C[C@@H](C)O[C@@H](C)C1)Cn1c-2c(C2CCCCC2)c2ccc(C(=O)NS(=O)(=O)N(C)C)cc21 |

biological target: Human immunodeficiency virus type 1 integrase (Human immunodeficiency virus 1, UniProt Q7ZJM1); test: Inhibition of HIV-1 integrase; conditions: not given
Sequence (Q7ZJM1 whole entry): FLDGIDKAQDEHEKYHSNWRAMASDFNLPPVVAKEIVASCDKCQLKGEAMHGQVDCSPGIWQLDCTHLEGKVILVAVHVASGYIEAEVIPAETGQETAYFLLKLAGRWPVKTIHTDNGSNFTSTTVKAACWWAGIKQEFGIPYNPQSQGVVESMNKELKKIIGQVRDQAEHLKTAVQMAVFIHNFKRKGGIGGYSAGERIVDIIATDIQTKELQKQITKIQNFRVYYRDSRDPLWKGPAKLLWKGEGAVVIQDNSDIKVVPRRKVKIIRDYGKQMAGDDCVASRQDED

| IC50 [µM] | Structure (SMILES) |
| --- | --- |
| 0.002 | C=C[C@@H]1C[C@]1(NC(=O)[C@@H]1C[C@@H](Oc2ncc(OC)c3ccccc23)CN1C(=O)[C@@H](NC(=O)OC(C)(C)C)C(C)(C)C)C(=O)NS(=O)(=O)C1CC1 |
| 0.007 | C=C[C@@H]1C[C@]1(NC(=O)[C@@H]1C[C@@H](Oc2nccc3ccccc23)CN1C(=O)[C@@H](NC(=O)OC(C)(C)C)C(C)(C)C)C(=O)NS(=O)(=O)C1CC1 |
| 0.012 | C=C[C@@H]1C[C@]1(NC(=O)[C@@H]1C[C@@H](Oc2nccc3ccc(Cl)cc23)CN1C(=O)[C@@H](NC(=O)OC(C)(C)C)C(C)(C)C)C(=O)NS(=O)(=O)C1CC1 |

system: Human immunodeficiency virus 1; test: Antiviral activity against HIV-1 HTLV-IIIB infected in human MT4 cells assessed as reduction in virus induced cytopathic effect by immunofluorescence assay; type: functional, organism-based; conditions: Human immunodeficiency virus 1, MT4

| EC50 [µM] | Structure (SMILES) |
| --- | --- |
| 0.006 | C=C[C@@H]1C[C@]1(NC(=O)[C@@H]1C[C@@H](Oc2ncc(OC)c3ccc(Cl)cc23)CN1C(=O)[C@@H](NC(=O)OC(C)(C)C)C(C)(C)C)C(=O)NS(=O)(=O)C1CC1 |
| 0.019 | C=C[C@@H]1C[C@]1(NC(=O)[C@@H]1C[C@@H](Oc2ncc(OC)c3ccccc23)CN1C(=O)[C@@H](NC(=O)OC(C)(C)C)C(C)(C)C)C(=O)NS(=O)(=O)C1CC1 |
| 0.06 | C=C[C@@H]1C[C@]1(NC(=O)[C@@H]1C[C@@H](Oc2nccc3ccccc23)CN1C(=O)[C@@H](NC(=O)OC(C)(C)C)C(C)(C)C)C(=O)NS(=O)(=O)C1CC1 |
| 0.02 | C=C[C@@H]1C[C@]1(NC(=O)[C@@H]1C[C@@H](Oc2nccc3ccc(Cl)cc23)CN1C(=O)[C@@H](NC(=O)OC(C)(C)C)C(C)(C)C)C(=O)NS(=O)(=O)C1CC1 |

system: Hepatitis C virus; test: Antiviral activity against Hepatitis C virus genotype 1b infected in human Huh-7 cells assessed as reduction in viral infection; type: functional, organism-based, Hepacivirus hominis; conditions: not given

| EC50 [µM] | Structure (SMILES) |
| --- | --- |
| 0.024 | COc1ccc2c(c1)[C@@H]1C[C@]1(C(=O)N1C[C@@H](C)O[C@@H](C)C1)Cn1c-2c(C2CCCCC2)c2ccc(C(=O)NS(=O)(=O)N(C)C)cc21 |

biological target: T1, Non-receptor tyrosine-protein kinase TYK2; test: Inhibition of TYK2 (unknown origin); conditions: not given

| IC50 [µM] | Structure (SMILES) |
| --- | --- |
| 0.0007 | CNC(=O)c1cnc(NC(=O)C2CC2)cc1Nc1cccc(-c2ncn(C)n2)c1OC |
| 0.0004 | CNC(=O)c1cnc(Nc2cc(C)c(F)cn2)cc1Nc1cccc(-c2ncn(C)n2)c1OC |
| 0.0003 | [2H]C([2H])([2H])NC(=O)c1cnc(NC(=O)C2CC2)cc1Nc1cccc(-c2ncn(C)n2)c1OC |

biological target: not listed separately; test: Inhibition of tyrosine kinase (unknown origin); set-up: species or system Homo sapiens; conditions: not given

| IC50 [µM] | Structure (SMILES) |
| --- | --- |
| 0.0043 | COc1cc(Nc2c(C#N)cnc3cc(OC)c(OC)cc23)c(Cl)cc1Cl |
| 0.03 | COc1cc2ncc(C#N)c(Nc3ccc(Cl)cc3Cl)c2cc1OC |
| 0.0008 | COc1cc(Nc2c(C#N)cnc3cc(OCCCN4CCOCC4)c(OC)cc23)c(Cl)cc1Cl |
| 0.32 | COc1ccc2ncc(C#N)c(Nc3ccc(Cl)cc3Cl)c2c1 |
| 0.2 | COc1ccc2c(Nc3ccc(Cl)cc3Cl)c(C#N)cnc2c1 |
| 0.19 | COc1cc2ncc(C#N)c(Nc3cc(O)c(Cl)cc3Cl)c2cc1OC |
| 1.2 | CCOc1cc(Nc2c(C#N)cnc3cc(OC)c(OC)cc23)c(Cl)cc1Cl |
| > 1 | N#Cc1cnc2cc(O)c(O)cc2c1Nc1ccc(Cl)cc1Cl |
| > 1 | N#Cc1cnc2ccccc2c1Nc1ccc(Cl)cc1Cl |
| 0.0012 | COc1cc(Nc2c(C#N)cnc3cc(OCCCN4CCN(C)CC4)c(OC)cc23)c(Cl)cc1Cl [BOSUTINIB] |

system: Human immunodeficiency virus 1; test: Antiviral activity against HIV-1 3B infected in human MT4 cells assessed as reduction in virus-induced cytopathic effect incubated for 4 days by MTT assay; type: functional, organism-based; conditions: Human immunodeficiency virus 1, 3B, MT4, 96 h

| Structure (SMILES) | EC50 [µM] |
| --- | --- |
| CNC(=O)c1ccc(OC)c2c(C(=O)C(=O)N3CCN(C(=O)c4ccccc4)CC3)c[nH]c12 | 0.00076 |
| CNC(=O)c1ncc(OC)c2c(C(=O)C(=O)N3CCN(C(=O)c4ccccc4)CC3)c[nH]c12 | 0.00028 |
